The nature of data set [1]: Rapid screen of prodrug hydrolysis and drug release in plasma. In kind it is in vitro ADME. Particulars: 10 ug/mL in fresh rat plasma at 37° C.; analysis 5 minutes after incubation; stock 1 mg/mL in PEG-400. The procedure: A rapid screen to determine the ability of prodrugs to hydrolyze and release the drug (compound of Preparation 1) is conducted as follows. A 1 mg/mL stock solution of the prodrug is prepared in distilled water or acetonitrile or PEG-400. Plasma from freshly collected rat or human blood is used in this assay. To 1 mL of plasma at 37° C. was added 10 μL of stock solution of prodrug and mixed gently. Immediately after the mixing, 100 μL of plasma was removed and quenched with 300 μL of acetontrile (Zero time sample). Samples were also obtained at 30 minutes and quenched immediately. The quenched samples were centrifuged to obtain a clear supernatant for analysis. The stock solution, T=0 and T=30 samples were analyzed by a HPLC assay that separates the drug from the prodrug. Based on the relative peak areas of prodrug and drug in these samples, different prodrugs are characterized as fast, moderate and slow release agents. For example, in this model, the compound of Example 1 was dissolved in PEG-400 at a concentration of 1 mg/mL and incubated at 10 ug/mL in fresh rat plasma at 37° C.

Data set [2] relates to cloned mammalian (mSlo or hSlo) BK-mediated outward current. The experiment in a line: Increase of cloned BK-mediated outward current in Xenopus oocytes, two-electrode voltage clamp. The data set is classed as cell-based. Particulars: 1 μM; at least 5 oocytes; mSlo or hSlo expressed in Xenopus oocytes. The procedure:
(§1) The ability of the compound of Preparation 1 to open BK channels and increase whole-cell outward (K^+) BK-mediated currents was assessed under voltage-clamp conditions by determining their ability to increase cloned mammalian (mSlo or hSlo) BK-mediated outward current heterologously expressed in Xenopus oocytes [Butler, A., et al., Science, 261, pp. 221-224 (1993); and Dworetzky, S. I., et al., Mol. Brain Res., 27, pp.189-193 (1994)]. The two BK constructs employed represent nearly structurally identical homologous proteins, and have proven to be pharmacologically identical in our tests. To isolate BK current from native (background, non-BK) current, the specific and potent BK channel-blocking toxin iberiotoxin (IBTX) [Galvez, A., et al., J. Biol. Chem, 265, pp. 11083-11090 (1990)] was employed at a supramaximal concentration (50 nM). The relative contribution of BK channels current to total outward current was determined by subtraction of the current remaining in the presence of IBTX (non-BK current) from the current profiles obtained in all other experimental conditions (control, drug, and wash). […]
For orientation: Two-electrode voltage clamp is typically applied to oocytes expressing channels or transporters.

Data set [3] relates to non-BK native currents in the oocytes. Put plainly: Effect on non-BK (IBTX-insensitive) native currents in oocytes. The settings on record: at the tested concentration. In kind it is cell-based, Xenopus. The procedure:
as §1

Another data set relates to focal cerebral ischemia. Put plainly: Focal stroke model: permanent MCA and CCA occlusion, cortical infarct volume. In kind it is in vivo, Wistar rat. Particulars: 10 μg/kg i.v. single bolus two hours after MCA occlusion; measured 24 hours after MCAO; vs vehicle-treated (water) control. The protocol:
To determine the ability of the compounds of the present invention to reduce cell loss resulting from neuronal ischemia, a standard focal cerebral ischemia is induced by permanent occlusion of the left middle cerebral artery (MCA) and common carotid artery (CCA) with one hour occlusion of the right CCA in the Wistar rat. The surgeries are performed using the sub-temporal approach of A. Tamura, et al., J. Cereb. Blood Flow Metab., 1, pp. 53-60, (1981) and its modifications [K. Osborne, et al., J. Neurol Neurosurg. Psychiatry, 50, pp. 402-410 (1987) and S. Menzies,et al., Neurosurgery, 31, pp. 100-107, (1992).]
The compound of Preparation 1 was evaluated in the focal stroke model involving permanent occlusion of the left MCA (MCAO) and CCA (CCAO) and temporary occlusion of the right CCA in the Wistar rat. This procedure results in a reliably large neocortical infarct volume that is measured by means of vital dye exclusion in serial slices through the brain 24 hours after MCAO. In the present test, compounds were administered using an i.v. or i.p. route of administration two hours after occlusion.

The results in this text go back to patent US5948802A, “Benzoate derivatives of diaryl 1,3,4-oxadiazolone” (Bristol-Myers Squibb Company, priority 1999, dated 1999).

Structures can show the parent of a compound that is named as a salt.

Turning to `CCN(CC)Cc1ccc(C(=O)Oc2ccc(Cl)cc2Cn2nc(-c3ccc(C(F)(F)F)cc3)oc2=O)cc1` [Example 1, 4-Chloro-2-[[5-[4-(trifluoromethyl)phenyl]-2,3-dihydro-2-oxo-1,3,4-oxadiazol-3-yl]methyl]phenyl 4-[(diethylamino)-methylbenzoate hydrochloride], the “conversion of prodrug to the compound of Preparation 1” value in data set [1] is “indicated conversion of the compound of Example 1 to the compound of Preparation 1”.

As to `O=c1oc(-c2ccc(C(F)(F)F)cc2)nn1Cc1cc(Cl)ccc1O` [Preparation 1, 3-[(5-Chloro-2-hydroxyphenyl)methyl]-5-[4-(trifluoromethyl)phenyl]-1,3,4-oxadiazol-2(3H)-one], in data set [2], the “BK current, % of control of IBTX-sensitive current” value is on record as 126%. Moreover, the “effect on non-BK native currents in the oocytes” value in data set [3] is on record as “did not effect non-BK native currents”. Further, the “reduction of cortical infarct volume” value with focal cerebral ischemia was “about 18%”.
